Assay results reported in patent US20230085307A1, “PYRIDAZINONE COMPOUND AND HERBICIDE” (NISSAN CHEMICAL CORPORATION, priority 2019, published 2023).

Assays:
green foxtail [1] = experiment: Test Example 4: herbicidal effect by soil treatment (Table 19, symbol G); type: in vivo, green foxtail (Setaria viridis); conditions: amount of applied herbicide 320 g/ha
Procedure, shortened: (§1)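 Applied as a water-diluted emulsion, the compound was sprayed onto soil covering newly sown seeds. Evaluation came three weeks after application, in a greenhouse held at 25° C. to 30° C.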

oval-leafed pondweed = experiment: Test Example 1: herbicidal activity, application before weed generation under submerged conditions (Table 16, symbol C); type: in vivo, oval-leafed pondweed (Monochoria vaginalis); conditions: amount of applied herbicide 320 g/ha
Procedure, shortened: (§2)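 Emulsion formulation, water-diluted to set dose, was put onto the flooded surface (4 cm depth, alluvial soil) the same day weeds were sown and 2.5-leaf rice transplanted. After 3 weeks at 25-30 °C under glass, each species was rated 0 (≤5% kill) to 5 (≥90% kill).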

persian speedwell [2] = experiment: Test Example 4: herbicidal effect by soil treatment (Table 19, symbol R); type: in vivo, Persian speedwell (Veronica persica); conditions: amount of applied herbicide 320 g/ha
Procedure, shortened: as §1

redroot pigweed [3] = experiment: Test Example 4: herbicidal effect by soil treatment (Table 19, symbol N); type: in vivo, redroot pigweed (Amaranthus retroflexus); conditions: amount of applied herbicide 320 g/ha
Procedure, shortened: as §1

barnyard grass [4] = experiment: Test Example 4: herbicidal effect by soil treatment (Table 19, symbol H); type: in vivo, barnyard grass (Echinochloa crus-galli); conditions: amount of applied herbicide 320 g/ha
Procedure, shortened: as §1

persian speedwell [5] = experiment: Test Example 5: herbicidal effect by foliage application, plastic box (Table 20, symbol R); type: in vivo, Persian speedwell (Veronica persica); conditions: amount of applied herbicide 320 g/ha; foliage application after 14-day growth; evaluated three weeks after application
Procedure, shortened: (§3)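 Sow seeds spot-wise in sterilized diluvial soil; cover with ~1.5 cm soil. Grow 14 days in greenhouse, 25° C. to 30° C. Spray foliage with emulsion diluted to predetermined amount. Rate effect after 3 weeks.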

Italian ryegrass [6] = experiment: Test Example 5: herbicidal effect by foliage application, plastic box (Table 20, symbol K); type: in vivo, Italian ryegrass (Lolium multiflorum); conditions: amount of applied herbicide 320 g/ha; foliage application after 14-day growth; evaluated three weeks after application
Procedure, shortened: as §3

rice flat sedge = experiment: Test Example 3: herbicidal effect by foliage application, Wagner pot (Table 18, symbol E); type: in vivo, rice flat sedge (Cyperus iria); conditions: 320 g/ha
Procedure, shortened: (§4)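 Plants were sown in alluvial soil held under 0.1–0.5 cm standing water and grown 14 days in a greenhouse at 25–30 °C. An emulsifiable formulation, water-diluted to the set dose, was then sprayed onto the foliage, and effects were scored three weeks later using previously defined criteria.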

Chinese sprangletop = experiment: Test Example 3: herbicidal effect by foliage application, Wagner pot (Table 18, symbol D); type: in vivo, chinese sprangletop (Leptochloa chinensis); conditions: 320 g/ha
Procedure, shortened: as §4

windgrass [7] = experiment: Test Example 4: herbicidal effect by soil treatment (Table 19, symbol L); type: in vivo, windgrass (Apera spica-venti); conditions: amount of applied herbicide 320 g/ha
Procedure, shortened: as §1

chickweed [8] = experiment: Test Example 4: herbicidal effect by soil treatment (Table 19, symbol P); type: in vivo, common chickweed (Stellaria media); conditions: amount of applied herbicide 320 g/ha
Procedure, shortened: as §1

green foxtail [9] = experiment: Test Example 5: herbicidal effect by foliage application, plastic box (Table 20, symbol G); type: in vivo, green foxtail (Setaria viridis); conditions: amount of applied herbicide 320 g/ha; foliage application after 14-day growth; evaluated three weeks after application
Procedure, shortened: as §3

wild oat [10] = experiment: Test Example 4: herbicidal effect by soil treatment (Table 19, symbol I); type: in vivo, wild oat (Avena fatua); conditions: amount of applied herbicide 320 g/ha
Procedure, shortened: as §1

Japanese bulrush = experiment: Test Example 1: herbicidal activity, application before weed generation under submerged conditions (Table 16, symbol B); type: in vivo, Japanese bulrush (Schoenoplectus juncoides); conditions: amount of applied herbicide 320 g/ha
Procedure, shortened: as §2

southern crabgrass [11] = experiment: Test Example 5: herbicidal effect by foliage application, plastic box (Table 20, symbol F); type: in vivo, southern crabgrass (Digitaria ciliaris); conditions: amount of applied herbicide 320 g/ha; foliage application after 14-day growth; evaluated three weeks after application
Procedure, shortened: as §3

late watergrass = experiment: Test Example 1: herbicidal activity, application before weed generation under submerged conditions (Table 16, symbol A); type: in vivo, late watergrass (Echinochloa oryzicola); conditions: amount of applied herbicide 320 g/ha
Procedure, shortened: as §2

velvetleaf [12] = experiment: Test Example 5: herbicidal effect by foliage application, plastic box (Table 20, symbol M); type: in vivo, velvetleaf (Abutilon theophrasti); conditions: amount of applied herbicide 320 g/ha; foliage application after 14-day growth; evaluated three weeks after application
Procedure, shortened: as §3

barnyard grass [13] = experiment: Test Example 5: herbicidal effect by foliage application, plastic box (Table 20, symbol H); type: in vivo, barnyard grass (Echinochloa crus-galli); conditions: amount of applied herbicide 320 g/ha; foliage application after 14-day growth; evaluated three weeks after application
Procedure, shortened: as §3

barnyard grass [14] = experiment: Test Example 3: herbicidal effect by foliage application, Wagner pot (Table 18, symbol H); type: in vivo, barnyard grass (Echinochloa crus-galli); conditions: 320 g/ha
Procedure, shortened: as §4

southern crabgrass [15] = experiment: Test Example 4: herbicidal effect by soil treatment (Table 19, symbol F); type: in vivo, southern crabgrass (Digitaria ciliaris); conditions: amount of applied herbicide 320 g/ha
Procedure, shortened: as §1

lambsquarters [16] = experiment: Test Example 4: herbicidal effect by soil treatment (Table 19, symbol O); type: in vivo, lambsquarters (Chenopodium album); conditions: amount of applied herbicide 320 g/ha
Procedure, shortened: as §1

chickweed [17] = experiment: Test Example 5: herbicidal effect by foliage application, plastic box (Table 20, symbol P); type: in vivo, common chickweed (Stellaria media); conditions: amount of applied herbicide 320 g/ha; foliage application after 14-day growth; evaluated three weeks after application
Procedure, shortened: as §3

redroot pigweed [18] = experiment: Test Example 5: herbicidal effect by foliage application, plastic box (Table 20, symbol N); type: in vivo, redroot pigweed (Amaranthus retroflexus); conditions: amount of applied herbicide 320 g/ha; foliage application after 14-day growth; evaluated three weeks after application
Procedure, shortened: as §3

blackgrass [19] = experiment: Test Example 4: herbicidal effect by soil treatment (Table 19, symbol J); type: in vivo, blackgrass (Alopecurus myosuroides); conditions: amount of applied herbicide 320 g/ha
Procedure, shortened: as §1

velvetleaf [20] = experiment: Test Example 4: herbicidal effect by soil treatment (Table 19, symbol M); type: in vivo, velvetleaf (Abutilon theophrasti); conditions: amount of applied herbicide 320 g/ha
Procedure, shortened: as §1

wild oat [21] = experiment: Test Example 5: herbicidal effect by foliage application, plastic box (Table 20, symbol I); type: in vivo, wild oat (Avena fatua); conditions: amount of applied herbicide 320 g/ha; foliage application after 14-day growth; evaluated three weeks after application
Procedure, shortened: as §3

windgrass [22] = experiment: Test Example 5: herbicidal effect by foliage application, plastic box (Table 20, symbol L); type: in vivo, windgrass (Apera spica-venti); conditions: amount of applied herbicide 320 g/ha; foliage application after 14-day growth; evaluated three weeks after application
Procedure, shortened: as §3

lambsquarters [23] = experiment: Test Example 5: herbicidal effect by foliage application, plastic box (Table 20, symbol O); type: in vivo, lambsquarters (Chenopodium album); conditions: amount of applied herbicide 320 g/ha; foliage application after 14-day growth; evaluated three weeks after application
Procedure, shortened: as §3

Italian ryegrass [24] = experiment: Test Example 4: herbicidal effect by soil treatment (Table 19, symbol K); type: in vivo, Italian ryegrass (Lolium multiflorum); conditions: amount of applied herbicide 320 g/ha
Procedure, shortened: as §1

blackgrass [25] = experiment: Test Example 5: herbicidal effect by foliage application, plastic box (Table 20, symbol J); type: in vivo, blackgrass (Alopecurus myosuroides); conditions: amount of applied herbicide 320 g/ha; foliage application after 14-day growth; evaluated three weeks after application
Procedure, shortened: as §3

Compound | G: green foxtail, herbicidal effect grade (green foxtail [1]) | Herbicidal effect, C: oval-leafed pondweed (oval-leafed pondweed) | R: persian speedwell, herbicidal effect grade (persian speedwell [2]) | N: redroot pigweed, herbicidal effect grade (redroot pigweed [3]) | H: barnyard grass, herbicidal effect grade (barnyard grass [4]) | Herbicidal effect by foliage application, R: persian speedwell (persian speedwell [5]) | Herbicidal effect by foliage application, K: Italian ryegrass (Italian ryegrass [6]) | herbicidal effect on rice flat sedge (E) (rice flat sedge) | herbicidal effect on Chinese sprangletop (D) (Chinese sprangletop) | L: windgrass, herbicidal effect grade (windgrass [7]) | P: chickweed, herbicidal effect grade (chickweed [8]) | Herbicidal effect by foliage application, G: green foxtail (green foxtail [9]) | I: wild oat, herbicidal effect grade (wild oat [10]) | Herbicidal effect, B: Japanese bulrush (Japanese bulrush) | Herbicidal effect by foliage application, F: southern crabgrass (southern crabgrass [11]) | Herbicidal effect, A: late watergrass (late watergrass) | Herbicidal effect by foliage application, M: velvetleaf (velvetleaf [12]) | Herbicidal effect by foliage application, H: barnyard grass (barnyard grass [13]) | herbicidal effect on barnyard grass (H) (barnyard grass [14]) | F: southern crabgrass, herbicidal effect grade (southern crabgrass [15]) | further results
CCCC(=O)Oc1c(C)nn(C)c(=O)c1-c1c(-c2ccc(OC(C)C)cc2)sc2cc(F)c(F)cc12 [5-020] | 0 (Herbicidal rate of 5% or less (almost no effect)) | 0 (Herbicidal rate of 5% or less (almost no effect)) | 3 (Herbicidal rate of 40% or more and less than 70%) | 3 (Herbicidal rate of 40% or more and less than 70%) | 0 (Herbicidal rate of 5% or less (almost no effect)) | 5 (Herbicidal rate of 90% or more (almost completely withered)) | 0 (Herbicidal rate of 5% or less (almost no effect)) | 0 (Herbicidal rate of 5% or less (almost no effect)) | 0 (Herbicidal rate of 5% or less (almost no effect)) | 0 (Herbicidal rate of 5% or less (almost no effect)) | 0 (Herbicidal rate of 5% or less (almost no effect)) | 0 (Herbicidal rate of 5% or less (almost no effect)) | 0 (Herbicidal rate of 5% or less (almost no effect)) | 0 (Herbicidal rate of 5% or less (almost no effect)) | 0 (Herbicidal rate of 5% or less (almost no effect)) | 3 (Herbicidal rate of 40% or more and less than 70%) | 2 (Herbicidal rate of 20% or more and less than 40%) | 1 (Herbicidal rate of 5% or more and less than 20%) | 3 (Herbicidal rate of 40% or more and less than 70%) | 0 (Herbicidal rate of 5% or less (almost no effect)) | O: lambsquarters, herbicidal effect grade (lambsquarters [16]): 0 (Herbicidal rate of 5% or less (almost no effect)); Herbicidal effect by foliage application, P: chickweed (chickweed [17]): 4 (Herbicidal rate of 70% or more and less than 90%); Herbicidal effect by foliage application, N: redroot pigweed (redroot pigweed [18]): 4 (Herbicidal rate of 70% or more and less than 90%); J: blackgrass, herbicidal effect grade (blackgrass [19]): 0 (Herbicidal rate of 5% or less (almost no effect)); M: velvetleaf, herbicidal effect grade (velvetleaf [20]): 0 (Herbicidal rate of 5% or less (almost no effect)); Herbicidal effect by foliage application, I: wild oat (wild oat [21]): 0 (Herbicidal rate of 5% or less (almost no effect)); Herbicidal effect by foliage application, L: windgrass (windgrass [22]): 0 (Herbicidal rate of 5% or less (almost no effect)); Herbicidal effect by foliage application, O: lambsquarters (lambsquarters [23]): 3 (Herbicidal rate of 40% or more and less than 70%); K: Italian ryegrass, herbicidal effect grade (Italian ryegrass [24]): 0 (Herbicidal rate of 5% or less (almost no effect)); Herbicidal effect by foliage application, J: blackgrass (blackgrass [25]): 0 (Herbicidal rate of 5% or less (almost no effect))
CCCC(=O)Oc1c(C)nn(C)c(=O)c1-c1c(-c2ccccc2OCC)sc2cc(Cl)c(Cl)cc12 [5-046] | 0 (Herbicidal rate of 5% or less (almost no effect)) | 0 (Herbicidal rate of 5% or less (almost no effect)) | 0 (Herbicidal rate of 5% or less (almost no effect)) | 0 (Herbicidal rate of 5% or less (almost no effect)) | 0 (Herbicidal rate of 5% or less (almost no effect)) | 4 (Herbicidal rate of 70% or more and less than 90%) | 0 (Herbicidal rate of 5% or less (almost no effect)) | 5 (Herbicidal rate of 90% or more (almost completely withered)) | 3 (Herbicidal rate of 40% or more and less than 70%) | 0 (Herbicidal rate of 5% or less (almost no effect)) | 3 (Herbicidal rate of 40% or more and less than 70%) | 3 (Herbicidal rate of 40% or more and less than 70%) | 0 (Herbicidal rate of 5% or less (almost no effect)) | 3 (Herbicidal rate of 40% or more and less than 70%) | 3 (Herbicidal rate of 40% or more and less than 70%) | 0 (Herbicidal rate of 5% or less (almost no effect)) | 5 (Herbicidal rate of 90% or more (almost completely withered)) | 4 (Herbicidal rate of 70% or more and less than 90%) | 5 (Herbicidal rate of 90% or more (almost completely withered)) | 0 (Herbicidal rate of 5% or less (almost no effect)) | O: lambsquarters, herbicidal effect grade (lambsquarters [16]): 0 (Herbicidal rate of 5% or less (almost no effect)); Herbicidal effect by foliage application, P: chickweed (chickweed [17]): 5 (Herbicidal rate of 90% or more (almost completely withered)); Herbicidal effect by foliage application, N: redroot pigweed (redroot pigweed [18]): 5 (Herbicidal rate of 90% or more (almost completely withered)); J: blackgrass, herbicidal effect grade (blackgrass [19]): 0 (Herbicidal rate of 5% or less (almost no effect)); M: velvetleaf, herbicidal effect grade (velvetleaf [20]): 0 (Herbicidal rate of 5% or less (almost no effect)); Herbicidal effect by foliage application, I: wild oat (wild oat [21]): 0 (Herbicidal rate of 5% or less (almost no effect)); Herbicidal effect by foliage application, L: windgrass (windgrass [22]): 0 (Herbicidal rate of 5% or less (almost no effect)); Herbicidal effect by foliage application, O: lambsquarters (lambsquarters [23]): 3 (Herbicidal rate of 40% or more and less than 70%); K: Italian ryegrass, herbicidal effect grade (Italian ryegrass [24]): 0 (Herbicidal rate of 5% or less (almost no effect)); Herbicidal effect by foliage application, J: blackgrass (blackgrass [25]): 0 (Herbicidal rate of 5% or less (almost no effect))
